# Patent publication US9533128B2, “Devices for maintaining patency of surgically created channels in tissue” (Broncus Medical Inc., priority 2003, dated 2017)
# Settings: polymer system of polydimethylsiloxane vinyl terminated at various viscosity and platinum-mono, di, tri and/or tetramethyldisiloxane complex
# Description: These components may be combined in different ratios to make the polymer. […] The amount of vinyl siloxane cross-linker may determine the rate of the drug release and diffusivity of the polymer to the drug.
compound,measurement,value
CC(=O)O[C@H]1C(=O)[C@@]2(C)[C@H]([C@H](OC(=O)c3ccccc3)[C@]3(O)C[C@H](OC(=O)[C@H](O)[C@@H](NC(=O)c4ccccc4)c4ccccc4)C(C)=C1C3(C)C)[C@]1(OC(C)=O)CO[C@@H]1C[C@@H]2O [paclitaxel],release profile,acceptable
